Measurements as given in patent US12343319B2, “Compositions and methods for treatment of diseases and disorders” (Atai Therapeutics Inc., priority 2023, dated 2025).

Tests used:
5-HT2B = molecular target: T1, 5-HT2B (Homo sapiens, UniProt P41595); assay: Radioligand binding, 5-HT2B; conditions: for Max % inhibition: radioligand binding, human 5-HT2B
T1 construct: expressed in transfected cells

5-HT2A = assay: Ca++ (calcium mobilization), 5-HT2A; type: cell-based, human; conditions: Ca++, human; calculated using ΔΔlog(Emax/EC50), reference = 1
Method: (§1) In vitro pharmacology studies were performed to evaluate the effects of compound 2-1 on functional activity of several 5-HT receptors using recombinant target overexpression cell culture systems. The effect of compound 2-1 on G protein-dependent signaling was investigated at 5-HT2A, 5-HT2B, and 5-HT2C receptors with calcium mobilization and IPOne assays; and at 5-HT1A, 5-HT1B, 5-HT1F, 5-HT5A, and 5-HT7D receptors with a cAMP assay. G protein-independent signaling was investigated at the 5-HT2A receptor with a β-Arrestin assay.
(§2) In vitro pharmacology studies were performed to evaluate the effects of compound 2-2 on functional activity at several 5-HT receptors using recombinant target overexpression cell culture systems. The effect of compound 2-2 on G protein-dependent signaling was investigated at 5-HT2A, 5-HT2B, and 5-HT2C receptors with calcium mobilization and IPOne assays; and at 5-HT1A, 5-HT1B, 5-HT1F, 5-HT5A, and 5-HT7D receptors with a cAMP assay. G protein-independent signaling was investigated at the 5-HT2A receptor with a β-arrestin assay. […] In Table 4, 5-HT receptor selectivity was calculated using ΔΔlog(Emax/EC50). Assay reference α-Me-5-HT or 5-HT was used for normalization at each receptor (5-HT2A/5-HT2B selectivity=1; 5-HT2A/5-HT2C selectivity=1). ND in Table 4 indicates, not determined, plateau was not reached within the concentration range tested to determine Emax.

5-HT2C = molecular target: T2, 5-HT2C (Homo sapiens, UniProt P28335); assay: Ca++ (calcium mobilization), 5-HT2C; type: cell-based; conditions: for Emax: Ca++, human 5-HT2C, read-out: Emax (%5-HT)
T2 construct: expressed in transfected cells
T2 sequence (P28335 33-458): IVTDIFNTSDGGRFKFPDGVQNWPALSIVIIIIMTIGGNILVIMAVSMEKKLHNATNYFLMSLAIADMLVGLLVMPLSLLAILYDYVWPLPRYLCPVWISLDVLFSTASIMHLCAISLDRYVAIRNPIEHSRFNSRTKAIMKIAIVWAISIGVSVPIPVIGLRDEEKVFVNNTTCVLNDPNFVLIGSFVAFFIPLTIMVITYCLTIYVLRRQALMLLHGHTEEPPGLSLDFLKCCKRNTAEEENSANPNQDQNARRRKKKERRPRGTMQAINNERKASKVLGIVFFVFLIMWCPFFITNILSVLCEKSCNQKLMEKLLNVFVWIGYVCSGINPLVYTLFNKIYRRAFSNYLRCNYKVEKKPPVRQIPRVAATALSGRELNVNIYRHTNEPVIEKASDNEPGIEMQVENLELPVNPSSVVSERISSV
Method: as §1, §2

[1] = molecular target: T3, 5-HT2A receptors in the mouse frontal cortex (Mus musculus, UniProt P35363); assay: Ex vivo 5-HT2A receptor occupancy ([3H]cimbi-36) in mouse frontal cortex
T3 construct: Left frontal cortices from each animal were homogenized individually; from tissue

5-HT2A receptor = 5-HT2A receptor (Mus musculus, UniProt P35363); assay: 5-HT2A receptor binding in mouse frontal cortical tissue
Sequence of 5-HT2A receptor (P35363 whole entry): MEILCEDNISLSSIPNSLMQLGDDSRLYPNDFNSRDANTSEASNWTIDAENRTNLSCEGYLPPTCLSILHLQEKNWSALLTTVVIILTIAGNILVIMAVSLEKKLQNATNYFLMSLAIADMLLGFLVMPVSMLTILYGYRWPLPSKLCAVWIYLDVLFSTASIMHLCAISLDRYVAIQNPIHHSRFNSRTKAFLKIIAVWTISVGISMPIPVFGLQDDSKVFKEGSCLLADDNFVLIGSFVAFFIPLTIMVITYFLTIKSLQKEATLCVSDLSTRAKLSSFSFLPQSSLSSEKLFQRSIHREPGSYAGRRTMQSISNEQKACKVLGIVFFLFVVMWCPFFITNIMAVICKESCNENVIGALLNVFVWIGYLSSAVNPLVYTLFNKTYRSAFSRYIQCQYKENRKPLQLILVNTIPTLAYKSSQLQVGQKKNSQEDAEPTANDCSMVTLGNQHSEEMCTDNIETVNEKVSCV

T3 sequence (P35363 whole entry): as above
T1 sequence (P41595 whole entry): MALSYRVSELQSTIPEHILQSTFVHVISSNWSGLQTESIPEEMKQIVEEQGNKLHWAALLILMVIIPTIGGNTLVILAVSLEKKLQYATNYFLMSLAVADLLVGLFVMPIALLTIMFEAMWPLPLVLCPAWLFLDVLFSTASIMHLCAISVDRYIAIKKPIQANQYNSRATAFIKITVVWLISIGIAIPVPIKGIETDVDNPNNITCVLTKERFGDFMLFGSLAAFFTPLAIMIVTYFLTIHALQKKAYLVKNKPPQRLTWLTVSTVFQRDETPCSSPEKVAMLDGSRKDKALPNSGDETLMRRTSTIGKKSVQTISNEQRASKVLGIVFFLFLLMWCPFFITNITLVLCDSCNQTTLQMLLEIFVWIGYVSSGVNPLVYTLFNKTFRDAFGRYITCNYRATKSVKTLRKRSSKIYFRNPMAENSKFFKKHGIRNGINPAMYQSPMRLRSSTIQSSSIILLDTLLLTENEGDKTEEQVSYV

SMILES	IC50 (5-HT2B) [nM]	Max % inhibition (5-HT2B) [%]	5-HT2A/5-HT2C Selectivity (5-HT2A)	EC50 (5-HT2C) [nM]	Emax (5-HT2C) [%]	EC50 [1] [nM]	ex vivo occupancy of 5-HT2A receptors (RO) ([1]; across 1, 3, 10 mg/kg IP)	brain concentration at 50% 5-HT2A RO ([1]; in brain) [ng/g]	receptor occupancy at 1 mg/kg ([1]; mouse, 1 mg/kg IP, 15 minutes post dosing, read-out: % Receptor Occupancy (RO)) [%]	remaining activity at 1 mg/kg ([1]; mouse, 1 mg/kg IP, 15 minutes post dosing, read-out: % of Control Binding) [%]	receptor occupancy at 3 mg/kg ([1]; mouse, 3 mg/kg IP, 15 minutes post dosing, read-out: % Receptor Occupancy (RO)) [%]	remaining activity at 3 mg/kg ([1]; mouse, 3 mg/kg IP, 15 minutes post dosing, read-out: % of Control Binding) [%]	receptor occupancy at 10 mg/kg ([1]; mouse, 10 mg/kg IP, 15 minutes post dosing, read-out: % Receptor Occupancy (RO)) [%]	remaining activity at 10 mg/kg ([1]; mouse, 10 mg/kg IP, 15 minutes post dosing, read-out: % of Control Binding) [%]	ED50 ([1]; mouse, IP, non-linear regression, read-out: dose at 50% 5-HT2A RO) [mg/kg]	IC50 (5-HT2A receptor) [nM]	Ki (5-HT2A receptor; Ki, Mean (Mouse), mouse frontal cortical tissue) [nM]
COc1ccc(OC)c(CCNCc2cc(C)cc(Cl)c2)c1 [Compound 2-1, N-(3-chloro-5-methylbenzyl)-2-(2,5-dimethoxyphenyl)ethan-1-amine]	84.9	102.5	77	42.2	82	–	–	–	–	–	–	–	–	–	–	–	–
COc1ccc(OC)c(CCNCc2cc(C)cc(F)c2)c1 [Compound 2-2, 2-(2,5-dimethoxyphenyl)-N-(3-fluoro-5-methylbenzyl)ethan-1-amine]	321	99.56	56	73.5	88.2	1930	21-60%	1608	21	79	37	63	60	40	6.14	20.8	9.6
